Experimental data published in paper PMC8048960 (Chemmedchem, 2020).
Peptide text beside a SMILES is read from it. * marks the point of attachment. Cbz = O=C(OCc1ccccc1)*

Experiments:
[1] = molecular target: purified full‐length Strep flag LRRK2 (Homo sapiens, UniProt Q5S007); assay: In vitro radioactive kinase assay; format: biochemical
kinome = conditions: kinases hit out of panel of 187; cited from earlier work
LRRK2 [2] = conditions: read-out: Ki in the biochemical assay; cited from earlier work
[3] = molecular target: GFP‐tagged LRRK2 in transfected HEK293 cells (Homo sapiens, UniProt Q5S007); assay: Ubiquitin assay; format: cell-based; conditions: 24 h; for LRRK2 ubiquitination (ubiquitin signal): 10 µM, with or without 5 µM MG132, compared to DMSO
GFP‐tagged LRRK2 in transfected HEK293 cells, sequence (Q5S007 whole entry): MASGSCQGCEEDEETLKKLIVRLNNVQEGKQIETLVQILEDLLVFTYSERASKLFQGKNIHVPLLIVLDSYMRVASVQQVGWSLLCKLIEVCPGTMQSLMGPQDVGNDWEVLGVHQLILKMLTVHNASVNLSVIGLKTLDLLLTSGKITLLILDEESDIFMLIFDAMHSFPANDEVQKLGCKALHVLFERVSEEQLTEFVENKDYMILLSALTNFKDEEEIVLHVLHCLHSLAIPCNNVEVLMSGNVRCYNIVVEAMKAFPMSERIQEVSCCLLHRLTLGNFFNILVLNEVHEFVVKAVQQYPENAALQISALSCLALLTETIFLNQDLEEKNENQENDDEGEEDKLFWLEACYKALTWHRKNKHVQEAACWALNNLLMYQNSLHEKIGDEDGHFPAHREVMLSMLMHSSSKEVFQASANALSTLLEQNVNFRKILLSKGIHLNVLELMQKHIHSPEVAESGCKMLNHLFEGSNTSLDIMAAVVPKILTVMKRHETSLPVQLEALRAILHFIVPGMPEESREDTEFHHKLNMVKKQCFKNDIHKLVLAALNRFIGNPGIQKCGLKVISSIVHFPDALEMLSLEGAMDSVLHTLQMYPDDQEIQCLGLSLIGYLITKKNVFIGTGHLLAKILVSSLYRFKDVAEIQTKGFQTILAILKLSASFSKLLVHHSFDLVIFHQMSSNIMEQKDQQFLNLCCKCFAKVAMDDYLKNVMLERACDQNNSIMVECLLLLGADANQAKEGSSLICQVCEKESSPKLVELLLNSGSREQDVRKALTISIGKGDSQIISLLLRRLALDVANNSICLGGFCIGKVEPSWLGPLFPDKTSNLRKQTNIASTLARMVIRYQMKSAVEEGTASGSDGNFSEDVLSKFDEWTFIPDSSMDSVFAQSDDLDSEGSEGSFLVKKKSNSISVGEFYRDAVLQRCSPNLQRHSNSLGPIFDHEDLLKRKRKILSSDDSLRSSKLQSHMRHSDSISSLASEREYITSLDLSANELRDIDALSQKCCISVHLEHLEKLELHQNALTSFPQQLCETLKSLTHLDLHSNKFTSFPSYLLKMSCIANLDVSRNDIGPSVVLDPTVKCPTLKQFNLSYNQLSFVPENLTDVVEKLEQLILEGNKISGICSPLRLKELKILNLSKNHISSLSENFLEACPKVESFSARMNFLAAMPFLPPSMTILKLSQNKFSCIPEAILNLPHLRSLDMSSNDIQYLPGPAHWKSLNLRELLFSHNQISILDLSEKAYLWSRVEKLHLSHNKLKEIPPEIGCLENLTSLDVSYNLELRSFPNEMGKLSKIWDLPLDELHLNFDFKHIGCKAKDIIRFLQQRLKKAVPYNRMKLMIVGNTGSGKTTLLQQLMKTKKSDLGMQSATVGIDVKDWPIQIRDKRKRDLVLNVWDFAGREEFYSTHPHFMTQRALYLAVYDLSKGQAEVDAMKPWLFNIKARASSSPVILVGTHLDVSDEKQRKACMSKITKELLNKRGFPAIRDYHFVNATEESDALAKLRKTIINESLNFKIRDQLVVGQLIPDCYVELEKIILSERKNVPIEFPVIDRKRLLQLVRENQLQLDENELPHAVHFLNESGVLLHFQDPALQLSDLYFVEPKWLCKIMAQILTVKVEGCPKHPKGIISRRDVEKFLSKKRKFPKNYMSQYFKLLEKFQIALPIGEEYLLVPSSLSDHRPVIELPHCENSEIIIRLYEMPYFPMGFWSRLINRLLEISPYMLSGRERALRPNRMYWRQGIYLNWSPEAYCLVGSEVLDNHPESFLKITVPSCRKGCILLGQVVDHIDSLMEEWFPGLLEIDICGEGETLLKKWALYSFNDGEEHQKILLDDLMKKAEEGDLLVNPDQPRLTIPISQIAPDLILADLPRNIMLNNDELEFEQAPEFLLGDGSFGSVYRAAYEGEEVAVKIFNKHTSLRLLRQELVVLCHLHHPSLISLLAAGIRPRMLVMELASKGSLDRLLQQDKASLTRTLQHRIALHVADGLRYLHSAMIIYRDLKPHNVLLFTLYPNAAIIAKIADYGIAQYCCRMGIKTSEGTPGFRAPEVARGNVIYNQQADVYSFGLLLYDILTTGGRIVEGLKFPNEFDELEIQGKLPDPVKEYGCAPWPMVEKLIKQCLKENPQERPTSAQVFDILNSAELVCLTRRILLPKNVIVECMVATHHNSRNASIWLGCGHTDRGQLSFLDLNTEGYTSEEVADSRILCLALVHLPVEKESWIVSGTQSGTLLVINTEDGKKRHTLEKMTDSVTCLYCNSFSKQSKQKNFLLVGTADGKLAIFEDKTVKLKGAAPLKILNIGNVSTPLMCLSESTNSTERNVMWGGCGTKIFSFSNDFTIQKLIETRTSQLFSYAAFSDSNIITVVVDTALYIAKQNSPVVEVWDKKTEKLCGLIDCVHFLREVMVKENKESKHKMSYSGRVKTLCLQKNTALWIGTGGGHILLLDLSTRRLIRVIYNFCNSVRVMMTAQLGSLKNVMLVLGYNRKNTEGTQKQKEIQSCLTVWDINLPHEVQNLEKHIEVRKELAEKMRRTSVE

LRRK2 [4] = conditions: read-out: IC50 in the cellular assay; cited from earlier work
[5] = cited from earlier work

purified full‐length Strep flag LRRK2, sequence (Q5S007 whole entry): as above

| Structure (SMILES) | IC50 [1] [nM] | kinome selectivity (kinome) | Ki (LRRK2 [2]) [nM] | LRRK2 ubiquitination (ubiquitin signal) [3] | IC50 (LRRK2 [4]) [nM] | brain penetration [5] | ubiquitin signal ([3]; 5 µM MG132 (proteasome inhibitor)) |
| --- | --- | --- | --- | --- | --- | --- | --- |
| CCNc1nc(Nc2cc(F)c(C(=O)N3CCOCC3)cc2OC)ncc1C(F)(F)F [GNE‐7915] | 17.3 ± 6.76 | 1 out of 187 | 2 | neither the original kinase inhibitor (11) nor PROTAC (33) increase LRRK2 ubiquitination | 9 | brain penetrant |  |
| CC(C)C[C@@H](C=O)NC(=O)[C@H](CC(C)C)NC(=O)[C@H](CC(C)C)NC(=O)OCc1ccccc1 [MG132] (Cbz-Leu-Leu-Leu-aldehyde) |  |  |  |  |  |  | can enhance the ubiquitin signal |
| CCNc1nc(Nc2cc(F)c(C(=O)NCCCCNc3cccc4c3C(=O)N(C3CCC(=O)NC3=O)C4=O)cc2OC)ncc1C(F)(F)F (stereo not drawn) [PROTAC 33] | 14.7 ± 6.14 |  |  | unable to increase the ubiquitin signal |  |  |  |
